Results taken from BindingDB's records for doi:10.1021/jm00064a006 (Eli Lilly, 1993).
pIC50: −log10 of the molar value.

Experiment: The antagonist activity measured as inhibition of LTB4 response in aggregation of neutrophils

| pIC50 | SMILES |
| --- | --- |
| 6.29 | CCCCCCCCCCOc1ccc2c(=O)c3cc(C(=O)O)ccc3oc2c1CCC(=O)O [5-(2-Carboxy-ethyl)-6-decyloxy-9-oxo-9H-xanthene-2-carboxylic acid] |
| 6.88 | COc1ccc(/C=C/CCCCOc2ccc3c(=O)c4cc(C(=O)O)ccc4oc3c2CCC(=O)O)cc1 [LY-210073] |
